# Measured values taken from US7323484B2, “Farnesyl transferase inhibitors” (Societe de Conseils de Recherches et d'Applications …, priority 1996, dated 2008).
# System: MIA-PaCa pancreatic cancer cells (expressing mutated Ki-ras gene)
# Assay: Antiproliferative activity on human tumoral cells, WST-1 assay, MIA PaCa-2
# Type: cell-based
# Settings: MIA PaCa-2 cells, 96 hrs treatment, 0 to 100 μM, WST-1, compared to control cells
# Procedure: Antiproliferative Activity of Farnesyl-Transferase Inhibitors on Human Tumoral Cells
# The assays were performed using either A-427 lung carcinomas (expressing mutated Ki-ras gene), HT-29 colon adenocarcinomas (expressing wild type ras gene), Calu-1 lung carcinomas (expressing mutated Ki-ras gene), and MIA-PaCa pancreatic cancer cells (expressing mutated Ki-ras gene). These tumoral cells were seeded on 96 well plates at day 0 and maintained at 37° C. in 5% CO2 atmosphere. At day 1, cells were treated with increased concentrations of test compounds ranging from 0 to 100 μM for 96 hrs. At the end of this period, the quantification of cell proliferation was evaluated by the calorimetric assay based on the cleavage of the tetrazolium salt WST-1 by mitochondrial dehydrogenases in viable cells leading to the formazan formation (Cell Proliferation Reagent WST-1 Kit, Boehringer Mannheim, Germany). These experiments, done in octuplicate, were repeated twice. The results, shown in Table I, depict the concentration range (μM) of test compound required to inhibit proliferation as compared to control cells in which no test compound was added.
row,Compound,"concentration range of test compound required to inhibit proliferation, MIA PaCa-2 [µM]"
1,"CCCC[C@H]1c2nc(-c3ccccc3OC)cn2CCN1C(=O)[C@@H](N)CS [Compound 3, 7-(2-amino-1-oxo-3-thio-propyl)-8-butyl-2-(2-methoxy-phenyl)-5,6,7,8-tetrahydro-imidazo-[1,2a]-pyrazine]",12.5 to 25
2,"CCC(C)[C@H]1c2nc(-c3ccccc3OC)cn2CCN1C(=O)[C@@H](N)CSSC[C@H](N)C(=O)N1CCn2cc(-c3ccccc3OC)nc2[C@@H]1C(C)CC (stereo partly shown) [Compound 20, bis-1,1′-[7-(2-amino-1-oxo-3-thiopropyl)-2-(methoxyphenyl)-8-(1-methylpropyl)-5,6,7,8-tetrahydroimidazo[1,2a]pyrazine]disulfide]",12.5
3,"COc1ccccc1-c1cn2c(n1)[C@H](C(C)(C)C)N(C(=O)[C@@H](N)CS)CC2 [Compound 24, 7-(2-amino-1-oxo-3-thiopropyl)-8-(1,1-dimethylethyl)-2-(2-methoxyphenyl)-5,6,7,8-tetrahydroimidazo[1,2a]pyrazine]",25 to 50
4,"CCC(C)[C@H]1c2nc(-c3ccccc3OCc3ccccc3)cn2CCN1C(=O)[C@@H](N)CS (stereo partly shown) [Compound 25, 7-(2-amino-1-oxo-3-thiopropyl)-8-(1-methylpropyl)-2-(2-(phenylmethoxy)phenyl)-5,6,7,8-tetrahydroimidazo[1,2a]pyrazine]",6.25 to 12.5
5,"COc1ccccc1-c1cn2c(n1)[C@H](CC1CCCCC1)N(C(=O)[C@@H](N)CS)CC2 [Compound 26, 7-(2-amino-1-oxo-3-thiopropyl)-8-(cyclohexylmethyl)-2-(2-methoxyphenyl)-5,6,7,8-tetrahydroimidazo[1,2a]pyrazine]",6.25 to 12.5
6,"CCCC[C@H]1c2nc(-c3c(O)cccc3OC)cn2CCN1C(=O)[C@@H](N)CS [Compound 29, 7-(2-amino-1-oxo-3-thiopropyl)-8-butyl-2 (2-hydroxy-6-methoxyphenyl)-5,6,7,8-tetrahydro[1,2a]pyrazine]",6.25 to 12.5
7,"COc1ccccc1-c1cn2c(n1)[C@H](C(C)(C)C)N(C(=O)[C@@H](N)CSSC[C@H](N)C(=O)N1CCn3cc(-c4ccccc4OC)nc3[C@@H]1C(C)(C)C)CC2 [Compound 30, bis-1,1′-[7-(2-amino-1-oxo-3-thiopropyl)-8-(1,1-dimethylethyl)-2-(2-methoxyphenyl)-5,6,7,8-tetrahydroimidazo[1,2a]pyrazine]disulfide]",12.5 to 25
